Assay results reported in PubChem BioAssay AID248 (DTP/NCI, 2004).
“And” between values parts separate entries of the source, which are not always exact repeats. Equal entries are not always repeated. Inconclusive results and toxic doses are left out. No stated cut-off is given here; in the data, active means T/C of 150% or more; inactive means T/C below 125%.

Tested on: L1210 leukemia ip in BDF1 mice, survival T/C
Test: NCI In Vivo Anticancer Drug Screen. Data for tumor model L1210 Leukemia (intraperitoneal) in B6D2F1 (BDF1) mice
Details: endpoint: mean survival time, higher = longer survival
Procedure, shortened: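 Transplantable tumor model; survival measured in treated vs vehicle control mice. Value = treated/control.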

[1] = dose: 25.0 mg/kg/injection, schedule: Q04DX003 (ip), vehicle: saline with Tween-80
[2] = dose: 50.0 mg/kg/injection, schedule: Q04DX003 (ip), vehicle: saline with Tween-80
[3] = dose: 100.0 mg/kg/injection, schedule: Q04DX003 (ip), vehicle: saline with Tween-80
[4] = dose: 200.0 mg/kg/injection, schedule: Q04DX003 (ip), vehicle: saline with Tween-80
[5] = dose: 100.0 mg/kg/injection, schedule: Q04DX003 (ip), vehicle: Klucel (hydroxypropylcellulose) (HPC)
[6] = dose: 200.0 mg/kg/injection, schedule: Q04DX003 (ip), vehicle: Klucel (hydroxypropylcellulose) (HPC)
[7] = dose: 400.0 mg/kg/injection, schedule: Q04DX003 (ip), vehicle: Klucel (hydroxypropylcellulose) (HPC)
[8] = dose: 25.0 mg/kg/injection, schedule: Q01DX001 (ip), vehicle: Klucel (hydroxypropylcellulose) (HPC)
[9] = dose: 50.0 mg/kg/injection, schedule: Q01DX001 (ip), vehicle: Klucel (hydroxypropylcellulose) (HPC)
[10] = dose: 100.0 mg/kg/injection, schedule: Q01DX001 (ip), vehicle: Klucel (hydroxypropylcellulose) (HPC)
[11] = dose: 50.0 mg/kg/injection, schedule: Q01DX009 (ip), vehicle: saline with Tween-80
[12] = dose: 100.0 mg/kg/injection, schedule: Q01DX009 (ip), vehicle: saline with Tween-80
[13] = dose: 100.0 mg/kg/injection, schedule: Q01DX001 (ip), vehicle: carboxymethylcellulose (CMC)
[14] = dose: 200.0 mg/kg/injection, schedule: Q01DX001 (ip), vehicle: carboxymethylcellulose (CMC)
[15] = dose: 400.0 mg/kg/injection, schedule: Q01DX001 (ip), vehicle: carboxymethylcellulose (CMC)
[16] = dose: 100.0 mg/kg/injection, schedule: Q01DX001 (ip), vehicle: saline
[17] = dose: 200.0 mg/kg/injection, schedule: Q01DX001 (ip), vehicle: saline
[18] = dose: 400.0 mg/kg/injection, schedule: Q01DX001 (ip), vehicle: saline
[19] = dose: 400.0 mg/kg/injection, schedule: Q04DX003 (ip), vehicle: saline with Tween-80

Measured: T/C

O=N[O-].[Co].[N-]=C=S.[NH2-].[NH2-].[NH2-].[NH2-]
inactive: dose: 6.25 mg/kg/injection, schedule: Q01DX009 (ip), vehicle: saline 106 % of control | dose: 12.5 mg/kg/injection, schedule: Q01DX009 (ip), vehicle: saline 114 % of control | dose: 12.5 mg/kg/injection, schedule: Q04DX003 (ip), vehicle: saline with Tween-80 96 % of control | dose: 13.2 mg/kg/injection, schedule: Q01DX009 (ip), vehicle: saline 104 % of control | dose: 16.0 mg/kg/injection, schedule: Q01DX009 (ip), vehicle: saline 104 % of control | dose: 20.0 mg/kg/injection, schedule: Q01DX009 (ip), vehicle: saline 113 % of control | dose: 25.0 mg/kg/injection, schedule: Q01DX009 (ip), vehicle: saline 104 % of control | [1] 96 % of control | dose: 30.0 mg/kg/injection, schedule: Q01DX009 (ip), vehicle: saline 113 % of control | dose: 35.0 mg/kg/injection, schedule: Q01DX009 (ip), vehicle: saline 104 % of control | dose: 50.0 mg/kg/injection, schedule: Q01DX009 (ip), vehicle: saline 116 % of control | [2] 88 % of control | [3] 105 % of control | [4] 90 % of control

CC(=O)c1ccc(Oc2ccc([N+](=O)[O-])cc2)cc1
inactive: [5] 98 % of control | [6] 96 % of control | [7] 101 % of control

Nc1ccc2c(c1)C(=O)c1cc([N+](=O)[O-])ccc1-2
inactive: [8] 97 % of control | [9] 90 % of control | [10] 94 % of control

CCCCOC(=O)C(C)OC(=O)Nc1ccccc1 (centres undefined)
inactive: dose: 100.0 mg/kg/injection, schedule: Q01DX009 (sc), vehicle: olive oil, sesame oil, peanut oil 95 % of control | dose: 100.0 mg/kg/injection, schedule: Q04DX003 (sc), vehicle: olive oil, sesame oil, peanut oil 100 % of control | dose: 200.0 mg/kg/injection, schedule: Q01DX009 (sc), vehicle: olive oil, sesame oil, peanut oil 92 % of control | dose: 200.0 mg/kg/injection, schedule: Q04DX003 (sc), vehicle: olive oil, sesame oil, peanut oil 105 % of control | dose: 400.0 mg/kg/injection, schedule: Q01DX009 (sc), vehicle: olive oil, sesame oil, peanut oil 92 % of control | dose: 400.0 mg/kg/injection, schedule: Q04DX003 (sc), vehicle: olive oil, sesame oil, peanut oil 115 % of control

CC1CC(=O)NN1C(O)c1ccc2c(c1)OCO2 (centres undefined)
inactive: dose: 100.0 mg/kg/injection, schedule: Q04DX002 (ip), vehicle: Klucel (hydroxypropylcellulose) (HPC) 97 % of control | dose: 200.0 mg/kg/injection, schedule: Q04DX002 (ip), vehicle: Klucel (hydroxypropylcellulose) (HPC) 97 % of control

CC1[N-]CCC[N-]CCC[N-]C(C)C2CCCC1[N-]2.[Ni+2].[O-][Cl+3]([O-])([O-])O (centres undefined)
inactive: dose: 25.0 mg/kg/injection, schedule: Q04DX002 (ip), vehicle: saline 92 % of control | dose: 50.0 mg/kg/injection, schedule: Q04DX002 (ip), vehicle: saline 89 % of control | dose: 100.0 mg/kg/injection, schedule: Q04DX002 (ip), vehicle: saline 92 % of control

CCOC(=O)NN=C1CCCC1
inactive: [11] 94 % of control | [12] 97 % of control

C1CCCCCC(NC2=NCCO2)CCCCC1
inactive: [1] 97 % of control | [2] 102 % of control | [3] 88 % of control

O=C(O)C12CC=CCC1(C(=O)O)CC=CC2 (centres undefined)
inactive: dose: 50.0 mg/kg/injection, schedule: Q01DX001 (ip), vehicle: carboxymethylcellulose (CMC) 96 % of control | [13] 98 % of control | [14] 102 % of control | [15] 98 % of control

CN(C)c1ccc(/C=N\NC(=O)CCCCC(=O)N/N=C\c2ccc(N(C)C)cc2)cc1
inactive: [5] 94 % of control | [6] 91 % of control | [7] 91 % of control

CC(=O)c1ccc2[nH]c(C)cc(=O)c2c1
inactive: [16] 94 % of control | [17] 107 % of control | [18] 96 % of control

COC(=O)c1ccc(OCc2ccccc2)cc1
inactive: [5] 103 % of control | [6] 100 % of control | [7] 92 % of control

Cc1nnc2ncnc(SCc3ccccc3)c2n1
inactive: dose: 12.5 mg/kg/injection, schedule: Q01DX001 (ip), vehicle: Klucel (hydroxypropylcellulose) (HPC) 100 % of control | [8] 95 % of control and 91 % of control | [9] 93 % of control | [10] 90 % of control

Cc1[o+]c(C)c2c(c1C)-c1ccccc1C2=O
inactive: [11] 93 % of control | [12] 96 % of control | [3] 98 % of control | dose: 200.0 mg/kg/injection, schedule: Q01DX009 (ip), vehicle: saline with Tween-80 105 % of control | [4] 98 % of control | [19] 98 % of control

CC(=O)c1ccc(CCC(=O)O)cc1
inactive: dose: 100.0 mg/kg/injection, schedule: Q04DX002 (ip), vehicle: saline with Tween-80 94 % of control | dose: 200.0 mg/kg/injection, schedule: Q04DX002 (ip), vehicle: saline with Tween-80 98 % of control | dose: 400.0 mg/kg/injection, schedule: Q04DX002 (ip), vehicle: saline with Tween-80 90 % of control

Cc1ccc(/C=C2\NC(=O)NC2=O)cc1
inactive: dose: 25.0 mg/kg/injection, schedule: Q01DX009 (ip), vehicle: water 94 % of control | dose: 50.0 mg/kg/injection, schedule: Q01DX009 (ip), vehicle: water 93 % of control | dose: 100.0 mg/kg/injection, schedule: Q01DX009 (ip), vehicle: water 100 % of control | dose: 200.0 mg/kg/injection, schedule: Q01DX009 (ip), vehicle: water 94 % of control | dose: 400.0 mg/kg/injection, schedule: Q01DX009 (ip), vehicle: water 101 % of control

Cc1c(C(=O)c2ccc3c(c2)OCO3)ccc2c1OCO2
inactive: [13] 100 % of control | [14] 100 % of control | [15] 96 % of control

O=C(O)C(SCc1ccccc1)c1ccccc1 (centres undefined)
inactive: [16] 91 % of control | [3] 95 % of control | [17] 98 % of control | [4] 95 % of control | [18] 92 % of control | [19] 101 % of control

CC(=O)OCCC/C(=C/c1ccc2c(c1)OCO2)[N+](=O)[O-]
inactive: [16] 104 % of control | [17] 101 % of control | [18] 98 % of control
